We go through 6 compounds from patent publication EP4755886A1 (Chengdu Chipscreen Pharmaceutical Ltd., priority 2023, dated 2025).

Where two headings read alike, the source gives them in different places. Some results are limits rather than exact numbers.

The test system of one data set is MTAP^-/- HCT-116 cells. The experiment in a line: Cell proliferation (MTS), MTAP-/- HCT-116. The following applies: for Selectivity: HCT116 WT IC50 relative to HCT116 MTAP-/- IC50; for IC50: Homo sapiens, 240 h, MTAP-/- HCT-116, 10 days with compound, MTS reading, read-out: IC50 HCT116 MTAP-/-. Type of data set: cell-based, human. The method, boiled down:
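MTAP-/- (CRISPR/Cas9 biallelic knockout) or wild-type HCT-116 cells seeded at 100 cells/well, treated next day with 8-point 3-fold dilutions (top 20 µM) for 10 days at 37 °C, 5% CO2. Viability read by MTS; IC50 from four-parameter logistic fit of inhibition rate vs log concentration.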

The nature of data set [1]: Human liver microsome stability. Type of data set: in vitro ADME. As to conditions: pH 7.4; human liver microsomes 0.5 mg/mL, compound 1 µM, NADPH 1 mM, 37 °C. The protocol:
(§1) Experimental materials: human liver microsomes (purchased from BIOIVT);
(§2) PBS: 0.1 M KH2PO4 and K2HPO4 buffers, pH 7.4.
MgCl2: a certain amount of MgCl2 was weighed out and prepared into a 16 mM MgCl2 solution with PBS.
NADPH (Chinese name: reduced nicotinamide adenine dinucleotide phosphate, purchased from Sigma, Cat. No.: 481973-500 mg): a certain amount of NADPH was weighed out and a 4 mM solution of NADPH was prepared with a 16 mM MgCl2 solution, and the final incubation concentration was 1 mM.
Compounds: 4 µM solutions of the test compounds and positive compounds were prepared with PBS, and the final incubation concentration was 1 µM.
Liver microsomes (purchased from BIOIVT, Cat. No.: X008070): the liver microsomes were diluted to […] with PBS, and the final incubation concentration was 0.5 mg/mL.
The prepared test compound or positive compound was added to a test tube, and then the prepared NADPH was added. The mixture was mixed well. The mixture was pre-incubated in a thermostat incubator at 220 rpm at 37 °C for 5 min, and the prepared liver microsomes were added to start the reaction. All steps were performed in replicate wells. At 0 min, 15 min, 30 min, 45 min, and 60 min, a certain volume of glacial acetonitrile solution containing an internal standard was added to the corresponding tube to precipitate the protein. The mixture was vortexed for 5 min with shaking, and then centrifuged at 4000 rpm for 10 min. […] The samples were analyzed by LC-MS/MS.
The concentrations (peak area ratios) of the example compounds were determined by LC-MS/MS. Rate constants were obtained by plotting "Ln (residual amount of compound %)" versus "incubation time" in Excel, thereby calculating the half-lives and intrinsic clearances of the drugs and providing a basis for the prediction of the in-vivo clearance.
[formula] CLH = CLint × fu × Qh /(CLint×fu+Qh) [formula]
Stability in human liver microsomes

A short description of a further data set: PK experiment in mice. The following applies: female, BALB/c, mouse, plasma, po, 10 mg/kg.
The target in the next data set is T1, CYP450 enzyme 3A4 (Homo sapiens, UniProt P08684).
T1 construct: Liver microsomes (purchased from BIOIVT, Cat. No.: X008070); tissue BIOIVT X008070; host or cells: human liver microsomes
T1 sequence (P08684 whole entry): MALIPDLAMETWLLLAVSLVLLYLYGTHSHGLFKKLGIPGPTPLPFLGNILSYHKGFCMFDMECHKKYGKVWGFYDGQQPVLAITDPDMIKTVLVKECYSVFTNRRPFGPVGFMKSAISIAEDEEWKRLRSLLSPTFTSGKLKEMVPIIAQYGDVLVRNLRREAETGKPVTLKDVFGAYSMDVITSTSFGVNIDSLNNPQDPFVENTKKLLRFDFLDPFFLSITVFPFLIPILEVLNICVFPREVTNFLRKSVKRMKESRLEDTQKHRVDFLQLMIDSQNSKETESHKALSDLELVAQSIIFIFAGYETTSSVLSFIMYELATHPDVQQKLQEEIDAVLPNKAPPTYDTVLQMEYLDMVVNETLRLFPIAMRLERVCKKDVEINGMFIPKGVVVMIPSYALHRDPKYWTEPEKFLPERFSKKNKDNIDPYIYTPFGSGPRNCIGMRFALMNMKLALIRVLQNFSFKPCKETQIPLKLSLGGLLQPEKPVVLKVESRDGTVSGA
The data set can be described thus: CYP inhibition test in human liver microsomes. In kind it is in vitro ADME. As to conditions: human liver microsomes 0.1 mg/mL. The protocol:
as §1, §2
MgCl2: a certain amount of MgCl2 was weighed out and prepared into a 20 mM MgCl2 solution with PBS.
NADPH (Chinese name: reduced nicotinamide adenine dinucleotide phosphate, purchased from Sigma, Cat. No.: 481973-500 mg): a certain amount of NADPH was weighed out and a 5 mM solution of NADPH was prepared with a 20 mM MgCl2 solution, and the final incubation concentration was 1 mM.
Compounds: 3 mM, 1 mM, 0.3 mM, 0.1 mM, 0.03 mM, 0.01 mM, and 0 mM solutions of the test compounds were prepared with a DMSO-methanol (v:v = 1:9) solution, and the final incubation concentrations were 30 µM, 10 µM, 3 µM, 1 µM, 0.3 µM, 0.1 µM, and 0 µM. 30 µM, 10 µM, 3 µM, 1 µM, 0.3 µM, and 0 µM solutions of the positive compound (ketoconazole) were prepared with a DMSO-methanol (v:v = 1:9) solution, and the final incubation concentrations were 0.3 µM, 0.1 µM, 0.03 µM, 0.01 µM, 0.003 µM, and 0 µM.
Substrate working solutions: 200 µM and 15 µM solutions of substrate working solutions (testosterone and midazolam) were prepared with PBS, separately, and the final incubation concentrations were 40 µM and 3 µM.
Liver microsomes (purchased from BIOIVT, Cat. No.: X008070): the liver microsomes were diluted to […] with PBS, and the final incubation concentration was 0.1 mg/mL.
The prepared test compounds or positive compounds were added to a 96-well plate, and then the prepared human liver microsome working solution and substrate working solution were added. The mixture was mixed well. The mixture was pre-incubated in a thermostat incubator at 37 °C for 5 min, and then the prepared NADPH was added to start the reaction. The mixture was incubated for 5 min or 10 min. After the incubation was completed, a pre-cooled acetonitrile solution containing an internal standard was added to terminate the reaction. After protein precipitation, the mixture was vortexed for 5 min with shaking and then centrifuged at 4000 rpm for 10 min. The supernatant was collected and added to the 96-well plate. The content (peak concentration ratio) of the metabolites of the substrate was determined by an LC-MS/MS method. The residual activity and the half maximal inhibitory concentration (IC50) of the enzyme were calculated based on the detected content.
Percentage of remaining enzyme activity: The activity of each subtype of CYP450 enzyme was expressed as the amount of metabolite produced, and the percentage of remaining enzyme activity was calculated as follows: [formula]
The concentrations of the test substances and the corresponding residual activity percentages were fitted using a nonlinear model of Excel software, and the concentration of the test substances at which 50% inhibition of metabolite production was achieved was the IC50 value.

For the next data set, the system named is wild-type HCT-116 cells. The experiment in a line: Cell proliferation (MTS), wild-type HCT-116. Type of data set: cell-based. As to conditions: Homo sapiens, 240 h; wild-type HCT-116, 10 days with compound, MTS reading; read-out: IC50 HCT116 WT. In outline:
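Wild-type HCT-116 cells were seeded at 100 cells/well in McCoy's 5A/10% FBS. From day 1 they were treated with compound in 3-fold dilutions (initial 20 µM, 8 points) for 10 days at 37° C. Proliferation was read by MTS on day 11, and IC50 was obtained from a four-parameter logistic fit.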

The next data set in a line: in vivo. The following applies: mouse, po, 10 mg/kg.
A short description of the next data set: PK experiment in rats. Type of data set: in vivo. The following applies: rat; SD male rats, PO 10 mg/kg, vehicle 0.5% MC/0.2% Tween 80, plasma. The protocol: The samples were analyzed by LC-MS/MS. […] Table 6. Pharmacokinetic parameters for rats

`CN(C(=O)c1cc2c3c(c(N)nc2cc1Cl)COC3)[C@@H]1COc2cc(C#Cc3cnn(C)c3)ccc21` [Compound 40A, (S)-4-amino-7-chloro-N-methyl-N-(6-((1-methyl-1H-pyrazol-4-yl)ethynyl)-2,3-dihydrobenzofuran-3-yl)-1,3-dihydrofuro[3,4-c]quinoline-8-carboxamide]: the Selectivity in the data set with MTAP^-/- HCT-116 cells was 105. The IC50 was 4.6 nM with MTAP^-/- HCT-116 cells; over 30 µM on CYP450 enzyme 3A4 (substrate midazolam 3 µM, read-out: IC50 3A4-Midazolam); over 30 µM on CYP450 enzyme 3A4 (substrate testosterone 40 µM, read-out: IC50 3A4-Testosterone); 483 nM in the data set on wild-type HCT-116 cells. In data set [1], this compound registered a half-life at 1 µM of 62.9 min. This compound returned an AUC(0-t) in the data set “PK experiment in mice” of 10100 ± 3500 ng·h/mL. In the data set “PK experiment in mice”, this compound had a Cmax of 793 ± 28 ng/mL.

With `[2H]C([2H])([2H])n1cc(C#Cc2ccc3c(c2)OC[C@H]3N(C)C(=O)c2cc3c(cc2F)nc(N)c2cnn(C)c23)cn1` [Compound 82A, (S)-4-amino-7-fluoro-N,1-dimethyl-N-(6-((1-(methyl-D3)-1H-pyrazol-4-yl)ethynyl)-2,3-dihydrobenzofuran-3-yl)-1H-pyrazolo[4,3-c]quinoline-8-carboxamide], in the data set with MTAP^-/- HCT-116 cells, the Selectivity is reported as 75 and the IC50 worked out at 2.6 nM. In “in vivo”, the AUC(0-t) turned out to be 14100 ± 4740 ng·h/mL and the Cmax was found to be 1430 ± 195 ng/mL. Moreover, the IC50 in the data set on wild-type HCT-116 cells came out at 196 nM.

For `[2H]C([2H])([2H])N(C(=O)c1cc2c3c(c(N)nc2cc1Cl)COC3)[C@@H]1COc2cc(C#Cc3cnn(C4CC4)c3)ccc21` [Compound 86A, (S)-4-amino-7-chloro-N-(6-((1-cyclopropyl-1H-pyrazol-4-yl)ethynyl)-2,3-dihydrobenzofuran-3-yl)-N-(methyl-D3)-1,3-dihydrofuro[3,4-c]quinoline-8-carboxamide], in the data set with MTAP^-/- HCT-116 cells, the Selectivity is on record as 124 and the IC50 is 8.7 nM. Further, in the data set “in vivo”, the AUC(0-t) came out at 15300 ± 2940 ng·h/mL and the Cmax was determined as 1480 ± 187 ng/mL. In the data set with wild-type HCT-116 cells, the IC50 turned out to be 1080 nM.

For the compound `C#Cc1ccc2c(c1)OCC2N(C)C(=O)c1ccc2nc(N)c3cnn(C)c3c2c1` (stereo not shown) [Reference Example 2], in the data set “PK experiment in rats”, the area under the curve AUC(0-t) worked out at 784 ± 595 ng·h/mL and the peak level (Cmax) was 131 ± 17 ng/mL. In addition, in data set [1], the half-life at 1 µM is 33.6 min.

Regarding `C#Cc1ccc2c(c1)OC[C@H]2N(C)C(=O)c1cc2c3c(c(N)nc2cc1Cl)COC3` [Reference Example 5, reference compound], the AUC(0-t) in “PK experiment in rats” was determined as 2940 ± 438 ng·h/mL; in the data set “PK experiment in mice”, 9080 ± 2790 ng·h/mL. Further, the results for the Cmax in “PK experiment in rats” and in the data set “PK experiment in mice” were 549 ± 139 ng/mL and 1400 ± 165 ng/mL, respectively. This compound also gave a half-life at 1 µM in data set [1] of 25.6 min.

In the data set “PK experiment in rats”, `Nc1nc2cnc(C(=O)N3CCOC[C@@H]3c3ccc(C(F)(F)F)cc3)cc2c2c1COC2` [Reference Example 7, reference compound] showed an area under the curve AUC(0-t) of 853 ± 79 ng·h/mL and a Cmax of 477 ± 110 ng/mL. In the data set with MTAP^-/- HCT-116 cells, the Selectivity worked out at 21 and the IC50 came out at 97.4 nM. For the same compound, the half-life at 1 µM in data set [1] was 28.9 min. In “PK experiment in mice”, this compound gave an AUC(0-t) of 12600 ± 1920 ng·h/mL and a Cmax of 1920 ± 76 ng/mL. The IC50 in the data set on wild-type HCT-116 cells amounted to 2010 nM.
